Here are results for 4 molecules from patent EP1561465A2, “Methods of use of fluoroquinolone compounds against bacteria” (LG Life Sciences, Ltd., priority 1999, dated 2001).

Molecules are shown by their SMILES. Values after ≈ are worked out from the molar mass of the structure shown. Read-outs that look alike come from different tables or passages of the source.

Experiment [1] concerns Haemophilus influenzae. Put plainly: MIC by two-fold serial agar dilution, Sensitivity Disk agar-N (Kitasato isolates). It counts as cell-based. The settings on record: Haemophilus influenzae (24). For orientation: In agar dilution the substance is mixed into plates at graded concentrations.
Experiment [2] relates to Moraxella catarrhalis. Described as above. The class given is cell-based. The settings on record: Moraxella catarrhalis (22).
Experiment [3] deals with Streptococcus pneumoniae. The experiment is described as above. The settings on record: for MIC90 / MIC / MIC50: Streptococcus pneumoniae; for MIC90: read-out: MIC90; for MIC: read-out: MIC Range; for MIC50: read-out: MIC50. The class given is cell-based.
Experiment [4] concerns Staphylococcus aureus. Put plainly: microbe, parasite or virus in culture. The class given is cell-based.
For experiment [5], the system named is Proteus mirabilis. Put plainly: MIC by agar dilution (NCCLS), 322 nosocomial Gram negative isolates, Athens 1998. It counts as cell-based. The settings on record: n = 57 isolates; for MIC50 / MIC90: Proteus mirabilis.
Experiment [6] deals with Klebsiella pneumoniae. The experiment is described as above. The class given is cell-based. The settings on record: n = 56 isolates; for MIC50 / MIC90: Klebsiella pneumoniae.
Experiment [7] concerns Escherichia coli. The description is as above. The class given is cell-based. The settings on record: Escherichia coli; n = 57 isolates.
For experiment [8], the system named is Enterobacter spp. The description is as above. It counts as cell-based. The settings on record: n = 57 isolates; for MIC50 / MIC90: Enterobacter; for MIC50: read-out: MIC50; for MIC90: read-out: MIC90.
Experiment [9] relates to Acinetobacter spp. Described as above. The class given is cell-based. The settings on record: n = 38 strains; for MIC50 / MIC90: Acinetobacter.
Experiment [10] deals with Pseudomonas aeruginosa. The experiment is described as above. It counts as cell-based. The settings on record: n = 57 isolates.
Experiment [11] deals with Aeromonas spp. Put plainly: MIC by agar dilution (NCCLS M7-A4), 288 enteropathogenic isolates, gemifloxacin and 15 other antimicrobials. The class given is cell-based. The settings on record: for MIC: Aeromonas spp. N= 16.
Experiment [12] deals with Campylobacter jejuni. The description is as above. The settings on record: Campylobacter jejuni.
For experiment [13], the system named is Yersinia enterocolitica. Described as above. The settings on record: for MIC: Yersinia enterocolitica N= 22. The class given is cell-based.
Experiment [14] has as its system Shigella spp. The description is as above. The class given is cell-based. The settings on record: for MIC: Shigella spp. N= 21. The gist of the method: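 Agar dilution with ~10^4 cfu/spot inoculum; plates incubated aerobically at 35 °C for 24 h, except C. jejuni, held microaerophilically for 48 h. MIC taken as lowest antibiotic concentration with no visible growth.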

The test system of experiment [15] is Hafnia alvei. The experiment is described as above. The class given is cell-based. The settings on record: Hafnia alvei N= 32.
Experiment [16] concerns Salmonella spp. The experiment is described as above. It counts as cell-based. The settings on record: for MIC: Salmonella.
Setting [17] is: 18 h, Ciprofloxacin-resistant (21), ciprofloxacin MIC ≥8 µg/ml.
The mark [18] stands for this setting: 18 h, Ciprofloxacin-resistant (21).
Where [19] appears, read: 18 h, Erythromycin-resistant (37).
Setting [20] is: 18 h, Penicillin-resistant (19).
Setting [21] is: 24 h, read-out: MIC (mg/L) Range.

As to `CO/N=C(\C(=O)N[C@@H]1C(=O)N2C(C(=O)O)=C(/C=C\c3scnc3C)CS[C@H]12)c1csc(N)n1` [Cefditoren, cefditoren], the MIC50 in experiment [1] is 0.031 µg/mL (≈ 0.0612 µM); in experiment [2], 0.5 µg/mL (≈ 0.987 µM); in experiment [3] (Ciprofloxacin-resistant (21)) it was at most 0.008 µg/mL; in experiment [3] (Ciprofloxacin-susceptible (94)) it was 0.063 µg/mL (≈ 0.124 µM); in experiment [3] (Erythromycin-resistant (37)), 0.063 µg/mL (≈ 0.124 µM); in experiment [3] (Minocycline-resistant (37)) it was 0.063 µg/mL (≈ 0.124 µM). For the same molecule, the MIC50 in [3] (Penicillin-resistant (19)) was 0.25 µg/mL (≈ 0.493 µM); in [4] (Staphylococcus aureus, Methicillin-resistant (38)), 128 µg/mL (≈ 253 µM); in experiment [4] (Staphylococcus aureus, Methicillin-susceptible (9)) it was 1 µg/mL (≈ 1.97 µM). The MIC90 in experiment [1] is 0.031 µg/mL (≈ 0.0612 µM); in [2] it was 1 µg/mL (≈ 1.97 µM); in experiment [3] (setting [17]), 0.25 µg/mL (≈ 0.493 µM); in experiment [3] (Ciprofloxacin-susceptible (94)) it was 0.25 µg/mL (≈ 0.493 µM); in experiment [3] (Erythromycin-resistant (37)) it was 0.25 µg/mL (≈ 0.493 µM); in [3] (Minocycline-resistant (37)) it was 0.25 µg/mL (≈ 0.493 µM). In addition, the MIC90 in experiment [3] (Penicillin-resistant (19)) worked out at 2 µg/mL (≈ 3.95 µM); in experiment [4] (Staphylococcus aureus, Methicillin-resistant (38), read-out: MIC90) it was 128 µg/mL (≈ 253 µM); in experiment [4] (Staphylococcus aureus, Methicillin-susceptible (9), read-out: MIC90), 1 µg/mL (≈ 1.97 µM). In addition, the “MIC Range” value in experiment [1] lay in the range of 0.016 to 0.5 µg/mL; in experiment [2], 0.063 to 1 µg/mL; in experiment [4] (Methicillin-resistant (38)), 32 to 128 µg/mL; in experiment [4] (Methicillin-susceptible (9)), 0.5 to 1 µg/mL. In addition, the MIC in [3] (setting [18]) was 0.008 to 1 µg/mL (≈ 0.0158 to 1.97 µM); in experiment [3] (18 h, Ciprofloxacin-susceptible (94)), 0.008 to 2 µg/mL (≈ 0.0158 to 3.95 µM); in [3] (setting [19]), 0.008 to 2 µg/mL (≈ 0.0158 to 3.95 µM); in experiment [3] (18 h, Minocycline-resistant (37)), 0.008 to 2 µg/mL (≈ 0.0158 to 3.95 µM); in experiment [3] (setting [20]) it was 0.25 to 2 µg/mL (≈ 0.493 to 3.95 µM).
As for `C[C@@H](O)[C@H]1C(=O)N2C(C(=O)O)=C(S[C@@H]3CN[C@H](C(=O)N(C)C)C3)[C@H](C)[C@H]12` [Meropenem], the MIC50 in [5] was 0.03 µg/mL (≈ 0.0782 µM); in [6], 0.03 µg/mL (≈ 0.0782 µM); in experiment [7], at most 0.03 µg/mL; in experiment [8], 0.06 µg/mL (≈ 0.156 µM); in [9] it was 2 µg/mL (≈ 5.22 µM); in experiment [10], 1 µg/mL (≈ 2.61 µM). The MIC90 was 0.25 µg/mL (≈ 0.652 µM) in [5]; 0.06 µg/mL (≈ 0.156 µM) in experiment [6]; at most 0.03 µg/mL in experiment [7]; 4 µg/mL (≈ 10.4 µM) in experiment [8]; 8 µg/mL (≈ 20.9 µM) in [9]; 16 µg/mL (≈ 41.7 µM) in experiment [10]. The “MIC Range” value is at most 0.03 to 4 µg/mL in experiment [5], at most 0.03 to 2 µg/mL in [6], at most 0.03 to 16 µg/mL in experiment [8] and 0.06 to 16 µg/mL in experiment [9].
For the molecule `CC1(C)S[C@@H]2[C@H](NC(=O)[C@H](N)c3ccc(O)cc3)C(=O)N2[C@H]1C(=O)O` [Amoxycillin, amoxycillin], the MIC50 in experiment [1] was found to be 1 µg/mL (≈ 2.74 µM); in [2] it was 8 µg/mL (≈ 21.9 µM); in experiment [3] (Ciprofloxacin-resistant (21)) it was 0.016 µg/mL (≈ 0.0438 µM); in experiment [3] (Ciprofloxacin-susceptible (94)), 0.063 µg/mL (≈ 0.172 µM); in experiment [3] (Erythromycin-resistant (37)), 0.063 µg/mL (≈ 0.172 µM); in experiment [3] (Minocycline-resistant (37)), 0.063 µg/mL (≈ 0.172 µM). In addition, in [3] (Penicillin-resistant (19)), the MIC50 came out at 0.5 µg/mL (≈ 1.37 µM). Also, the MIC90 in experiment [1] came out at 64 µg/mL (≈ 175 µM); in experiment [2] it was 16 µg/mL (≈ 43.8 µM); in experiment [3] (setting [17]), 0.5 µg/mL (≈ 1.37 µM); in experiment [3] (Ciprofloxacin-susceptible (94)), 0.5 µg/mL (≈ 1.37 µM); in experiment [3] (Erythromycin-resistant (37)), 0.5 µg/mL (≈ 1.37 µM); in experiment [3] (Minocycline-resistant (37)), 0.5 µg/mL (≈ 1.37 µM). The figures for the MIC90 in experiment [3] (Penicillin-resistant (19)), in [4] and in experiment [4] (Staphylococcus aureus) were 8 µg/mL (≈ 21.9 µM), 128 µg/mL (≈ 350 µM) and 64 µg/mL (≈ 175 µM), respectively. Also, the “susceptibility of isolates” value in experiment [11] (Aeromonas spp.) and in experiment [13] (Yersinia enterocolitica) was “non susceptible” in each case. Further, the MIC in experiment [11] (read-out: MIC (mg/L) 50%) is above 128 mg/L; in experiment [11] (read-out: MIC (mg/L) 90%), above 128 mg/L; in [12] (read-out: MIC (mg/L) 50%) it was 4 mg/L (≈ 10.9 µM); in [12] (read-out: MIC (mg/L) 90%) it was 32 mg/L (≈ 87.6 µM); in experiment [13] (setting [21]) it was 128 mg/L (≈ 350 µM); in [13] (read-out: MIC (mg/L) 50%), 128 mg/L (≈ 350 µM). Also, the MIC in experiment [13] (read-out: MIC (mg/L) 90%) was 128 mg/L (≈ 350 µM); in experiment [14] (read-out: MIC (mg/L) 50%), 128 mg/L (≈ 350 µM); in experiment [14] (read-out: MIC (mg/L) 90%) it was above 128 mg/L; in experiment [3] (setting [18]), 0.016 to 1 µg/mL (≈ 0.0438 to 2.74 µM); in [3] (setting [19]), 0.016 to 8 µg/mL (≈ 0.0438 to 21.9 µM); in experiment [3] (setting [20]) it was 0.25 to 8 µg/mL (≈ 0.684 to 21.9 µM). The MIC in experiment [15] (setting [21]) is 16 to 128 mg/L (≈ 43.8 to 350 µM); in [15] (read-out: MIC (mg/L) 50%), 64 mg/L (≈ 175 µM); in experiment [15] (read-out: MIC (mg/L) 90%), 64 mg/L (≈ 175 µM); in experiment [16] (read-out: MIC (mg/L) 50%, Salmonella spp. N= 106), 1 mg/L (≈ 2.74 µM); in [16] (read-out: MIC (mg/L) 90%, Salmonella spp. N= 106), above 128 mg/L. Also, the susceptible isolates in experiment [14] (Shigella spp., breakpoints) stood at 43%; in experiment [16] (Salmonella spp., breakpoints), 77%. For the same molecule, the “MIC Range” value is 1 to 16 µg/mL in experiment [2], at most 0.008 to 8 µg/mL in experiment [3] (Ciprofloxacin-susceptible (94)) and at most 0.008 to 8 µg/mL in [3] (Minocycline-resistant (37)).
Regarding `CCN1CCN(C(=O)N[C@@H](C(=O)N[C@@H]2C(=O)N3[C@@H]2SC(C)(C)[C@@H]3C(=O)O)c2ccccc2)C(=O)C1=O` [Piperacillin], the MIC50 in experiment [5] is 1 µg/mL (≈ 1.93 µM); in experiment [6], 32 µg/mL (≈ 61.8 µM); in experiment [7], 4 µg/mL (≈ 7.73 µM); in experiment [8] it was 16 µg/mL (≈ 30.9 µM); in experiment [9], above 64 µg/mL; in [10] it was 8 µg/mL (≈ 15.5 µM). Further, the MIC90 was above 64 µg/mL in [5]; above 64 µg/mL in experiment [6]; 64 µg/mL (≈ 124 µM) in [7]; above 64 µg/mL in [8]; above 64 µg/mL in [9]; above 64 µg/mL in [10].
